In patent publication US9512087B2, “Hybrid molecules containing pharmacophores of fluconazole as antifungal agents and their preparation” (Council for Scientific & Industrial Research, priority 2011, dated 2016):
Converted amounts (≈) assume the structure as drawn.

Key:
Experiment in all cases: Antifungal MIC, broth dilution
C. albicans ATCC 24433 = format: cell-based, Candida albicans; conditions: Candida albicans, ATCC24433, RPMI 1640 with MOPS, end point 48 hours; for MIC80: read-out: Ca01 A: MIC80; for MIC50: read-out: Ca01 B: MIC50
Procedure: (§1) The compounds of Formula 1 were tested for antifungal activity against Candida albicans, Aspergillus niger and Fusarium proliferatum. In vitro evaluation of antifungal activity was performed by determining the minimum inhibitory concentration (MIC) following standard methods (CLSI: Reference method for broth dilution antifungal susceptibility testing of yeasts; Approved standard, second edition M27-A2, 2002; CLSI: Reference method for broth dilution antifungal susceptibility testing of filamentous fungi; Approved standard M38-A, 2002). Anti-fungal susceptibility testing of these anti-fungal compounds was done by broth dilution method using RPMI 1640 medium with MOPS buffer. Known anti-fungal agents like fluconazole and amphotericin-B were used as positive control. End points were determined after 48 hours visually and by using spectrophotometer wherever necessary. Different dilutions were tried and various sets of experiments performed. The activity parameters are enumerated in Table 5.

A. niger ATCC 16404 = format: cell-based, Aspergillus niger; conditions: Aspergillus niger, ATCC16404, RPMI 1640 with MOPS, end point 48 hours, read-out: An01 MIC50
Procedure: as §1

C. neoformans ATCC 34664 = format: cell-based; conditions: Cryptococcus neoformans, ATCC34664, RPMI 1640 with MOPS, end point 48 hours, read-out: Cn01 MIC50
A. fumigatus ATCC 46645 = format: cell-based; conditions: Aspergillus fumigatus, ATCC46645, RPMI 1640 with MOPS, end point 48 hours, read-out: Afm01 MIC50
C. glabrata ATCC 90030 = format: cell-based; conditions: Nakaseomyces glabratus, ATCC90030, RPMI 1640 with MOPS, end point 48 hours, read-out: Cg01 MIC50
C. tropicalis ATCC 750 = format: cell-based; conditions: Candida tropicalis, ATCC750, RPMI 1640 with MOPS, end point 48 hours, read-out: Ct01 MIC50
C. krusei ATCC 6258 = format: cell-based; conditions: Pichia kudriavzevii, ATCC6258, RPMI 1640 with MOPS, end point 48 hours, read-out: Ck01 MIC50
[1] = tested on: F. proliferatum ATCC 10052; format: cell-based, Fusarium proliferatum; conditions: Fusarium proliferatum, ATCC10052, RPMI 1640 with MOPS, end point 48 hours, read-out: Fp01 MIC50
Procedure: as §1

MIC80 (C. albicans ATCC 24433) [µg/mL] | MIC50 (C. albicans ATCC 24433) [µg/mL] | MIC50 (A. niger ATCC 16404) [µg/mL] | MIC50 (C. neoformans ATCC 34664) [µg/mL] | MIC50 (A. fumigatus ATCC 46645) [µg/mL] | MIC50 (C. glabrata ATCC 90030) [µg/mL] | MIC50 (C. tropicalis ATCC 750) [µg/mL] | MIC50 (C. krusei ATCC 6258) [µg/mL] | MIC50 [1] [µg/mL] | SMILES
0.12 (≈ 0.25 µM) | 0.12 (≈ 0.25 µM) | > 4 | 2 (≈ 4.17 µM) | > 4 | 0.25 (≈ 0.521 µM) | 0.5 (≈ 1.04 µM) | 4 (≈ 8.34 µM) | > 4 | O=C(/C=C/c1ccccc1F)c1ccc(OCC(O)(Cn2cncn2)c2ccc(F)cc2F)cc1 (stereo not drawn) [Compound 1A-8]
0.25 (≈ 0.526 µM) | 0.12 (≈ 0.252 µM) | > 4 | 1 (≈ 2.1 µM) | 8 (≈ 16.8 µM) | 0.25 (≈ 0.526 µM) | 1 (≈ 2.1 µM) | 2 (≈ 4.21 µM) | > 4 | Cc1ccc(C(=O)/C=C/c2ccc(OCC(O)(Cn3cncn3)c3ccc(F)cc3F)cc2)cc1 (stereo not drawn) [Compound 1A-21]
